The assay concerns the target T1, Hormone-sensitive lipase (HSL) (Homo sapiens, UniProt Q05469).
T1 sequence (Q05469 1-1076): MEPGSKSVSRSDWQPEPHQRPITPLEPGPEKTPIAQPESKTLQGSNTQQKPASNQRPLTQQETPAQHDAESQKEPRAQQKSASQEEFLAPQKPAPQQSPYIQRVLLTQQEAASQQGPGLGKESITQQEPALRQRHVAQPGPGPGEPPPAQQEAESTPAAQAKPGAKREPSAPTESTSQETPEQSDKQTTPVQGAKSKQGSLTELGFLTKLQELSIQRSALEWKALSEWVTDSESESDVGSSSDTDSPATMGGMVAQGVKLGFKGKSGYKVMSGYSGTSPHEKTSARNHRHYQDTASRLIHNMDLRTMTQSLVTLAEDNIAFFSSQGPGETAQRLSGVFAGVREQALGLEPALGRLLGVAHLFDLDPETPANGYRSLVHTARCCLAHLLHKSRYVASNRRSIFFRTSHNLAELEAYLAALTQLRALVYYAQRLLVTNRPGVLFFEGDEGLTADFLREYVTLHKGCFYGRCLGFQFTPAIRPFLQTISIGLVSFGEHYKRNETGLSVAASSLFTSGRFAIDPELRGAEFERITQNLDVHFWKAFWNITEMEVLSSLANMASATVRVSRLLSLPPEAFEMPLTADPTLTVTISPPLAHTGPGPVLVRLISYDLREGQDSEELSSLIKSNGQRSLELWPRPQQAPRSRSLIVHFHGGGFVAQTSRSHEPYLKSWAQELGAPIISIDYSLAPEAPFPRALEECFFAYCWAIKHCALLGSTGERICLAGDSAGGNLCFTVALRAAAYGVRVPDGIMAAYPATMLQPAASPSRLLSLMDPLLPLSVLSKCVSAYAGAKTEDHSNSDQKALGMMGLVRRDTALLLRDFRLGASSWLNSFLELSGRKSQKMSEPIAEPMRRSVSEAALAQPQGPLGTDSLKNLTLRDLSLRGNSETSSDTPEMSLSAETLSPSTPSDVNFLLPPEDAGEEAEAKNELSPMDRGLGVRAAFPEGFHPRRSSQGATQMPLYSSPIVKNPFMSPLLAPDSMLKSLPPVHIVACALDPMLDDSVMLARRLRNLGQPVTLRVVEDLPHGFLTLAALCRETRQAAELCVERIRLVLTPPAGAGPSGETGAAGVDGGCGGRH
In words: selectivity: hormone-sensitive lipase assay. The format is biochemical. Particulars: 50 µM. The procedure:
Hormone-sensitive lipase (HSL) and lipoprotein lipase (LPL) were measured using a radiolabeled triolein droplet emulsion as described in "Vertesy et al., (2002) Journal Antibiotics 55:480-494". Pancreatic lipase (PL) was determined by incubation of 0.25 mmol tributyrin in 2 ml of 5 mM Tris/HCl (pH 6.5), 6 mM sodium taurodeoxycholate, 150 mM NaCl, 1 mM CaCl2 with porcine PL and colipase in the same buffer using a recording pH stat (stirring at 1000 rpm at 25°C) with the pH adjusted to 6.5. PC-PLC was assayed by incubation of 0.2 ml of 10 mM dipalmitoyllecithin, 0.1 ml of 10 mM SDC and 0.1 ml of 0.03 M CaCl2 with bacterial PC-PLC (in 50 mM Tris/HCl, pH 7.5, 0.1 % BSA) for 10 min at 37°C. The reaction was terminated by addition of 0.1 ml of 50 % TCA and subsequently of 2.5 ml of […]. After centrifugation (1500xg, 15 min), 0.2-ml portions of the upper methanol/water phase (~ 1.33 ml) was removed, supplemented with 0.5 ml of 60 % HClO4, then heated at 170°C for 1 h and finally analyzed for inorganic phosphate. Mammalian PI-PLC was measured by incubation of 0.1 ml of 10 mM PI, 0.1 ml of 0.8 % sodium deoxycholate, 0.1 % BSA, 0.2 ml of 100 mM sodium borate (pH 7.5) and rat liver PI-PLC for 20 min at 37°C. The reaction was terminated and further processed as described for the PC-PLC. […] Radioactive phosphatidic acid was detected by phosphorimaging. […]

Consider `CCCCCCCCCCCCP1(=O)O[C@@H]2[C@H](O)[C@@H](O)[C@H](O)[C@@H](O)[C@@H]2O1` (mixture of isomers) [GPI-2350, myo-inositol-1,2-cyclo-dodecylphosphonic acid], for which the “effect on lipase activity” value is “not significantly affected”.

Values taken from patent publication EP1566447A1, “Glimepiride- and insulin-induced glycosylphosphatidylinositol-specific phospholipase C regulation” (priority 2004, dated 2005).
